From paper doi:10.1101/2021.09.30.462449v1 (biorxiv, 2021)
Read-outs that look alike come from different tables or passages of the source.

Key:
Assay in all cases: biochemical
TEK (TIE2) Y1108F = TEK (TIE2) Y1108F (Homo sapiens, UniProt Q02763, Y1108F); conditions: read-out: % inhibition mean (Lanthascreen)
KIT V654A = KIT V654A (Homo sapiens, UniProt P10721, V654A); conditions: read-out: % inhibition mean (Lanthascreen)
TESK2 = TESK2 (Homo sapiens, UniProt Q96S53); conditions: read-out: % inhibition mean (Lanthascreen)
VRK2 = VRK2 (Homo sapiens, UniProt Q86Y07); conditions: read-out: % inhibition mean (Lanthascreen)
EPHA6 = EPHA6 (Homo sapiens, UniProt Q9UF33); conditions: read-out: % inhibition mean (Lanthascreen)
TTK = TTK (Homo sapiens, UniProt P33981); conditions: read-out: % inhibition mean (Lanthascreen)
ALK C1156Y = ALK C1156Y (Homo sapiens, UniProt Q9UM73, C1156Y); conditions: read-out: % inhibition mean (Lanthascreen)
Sequence of ALK C1156Y (Q9UM73 whole entry C1156Y): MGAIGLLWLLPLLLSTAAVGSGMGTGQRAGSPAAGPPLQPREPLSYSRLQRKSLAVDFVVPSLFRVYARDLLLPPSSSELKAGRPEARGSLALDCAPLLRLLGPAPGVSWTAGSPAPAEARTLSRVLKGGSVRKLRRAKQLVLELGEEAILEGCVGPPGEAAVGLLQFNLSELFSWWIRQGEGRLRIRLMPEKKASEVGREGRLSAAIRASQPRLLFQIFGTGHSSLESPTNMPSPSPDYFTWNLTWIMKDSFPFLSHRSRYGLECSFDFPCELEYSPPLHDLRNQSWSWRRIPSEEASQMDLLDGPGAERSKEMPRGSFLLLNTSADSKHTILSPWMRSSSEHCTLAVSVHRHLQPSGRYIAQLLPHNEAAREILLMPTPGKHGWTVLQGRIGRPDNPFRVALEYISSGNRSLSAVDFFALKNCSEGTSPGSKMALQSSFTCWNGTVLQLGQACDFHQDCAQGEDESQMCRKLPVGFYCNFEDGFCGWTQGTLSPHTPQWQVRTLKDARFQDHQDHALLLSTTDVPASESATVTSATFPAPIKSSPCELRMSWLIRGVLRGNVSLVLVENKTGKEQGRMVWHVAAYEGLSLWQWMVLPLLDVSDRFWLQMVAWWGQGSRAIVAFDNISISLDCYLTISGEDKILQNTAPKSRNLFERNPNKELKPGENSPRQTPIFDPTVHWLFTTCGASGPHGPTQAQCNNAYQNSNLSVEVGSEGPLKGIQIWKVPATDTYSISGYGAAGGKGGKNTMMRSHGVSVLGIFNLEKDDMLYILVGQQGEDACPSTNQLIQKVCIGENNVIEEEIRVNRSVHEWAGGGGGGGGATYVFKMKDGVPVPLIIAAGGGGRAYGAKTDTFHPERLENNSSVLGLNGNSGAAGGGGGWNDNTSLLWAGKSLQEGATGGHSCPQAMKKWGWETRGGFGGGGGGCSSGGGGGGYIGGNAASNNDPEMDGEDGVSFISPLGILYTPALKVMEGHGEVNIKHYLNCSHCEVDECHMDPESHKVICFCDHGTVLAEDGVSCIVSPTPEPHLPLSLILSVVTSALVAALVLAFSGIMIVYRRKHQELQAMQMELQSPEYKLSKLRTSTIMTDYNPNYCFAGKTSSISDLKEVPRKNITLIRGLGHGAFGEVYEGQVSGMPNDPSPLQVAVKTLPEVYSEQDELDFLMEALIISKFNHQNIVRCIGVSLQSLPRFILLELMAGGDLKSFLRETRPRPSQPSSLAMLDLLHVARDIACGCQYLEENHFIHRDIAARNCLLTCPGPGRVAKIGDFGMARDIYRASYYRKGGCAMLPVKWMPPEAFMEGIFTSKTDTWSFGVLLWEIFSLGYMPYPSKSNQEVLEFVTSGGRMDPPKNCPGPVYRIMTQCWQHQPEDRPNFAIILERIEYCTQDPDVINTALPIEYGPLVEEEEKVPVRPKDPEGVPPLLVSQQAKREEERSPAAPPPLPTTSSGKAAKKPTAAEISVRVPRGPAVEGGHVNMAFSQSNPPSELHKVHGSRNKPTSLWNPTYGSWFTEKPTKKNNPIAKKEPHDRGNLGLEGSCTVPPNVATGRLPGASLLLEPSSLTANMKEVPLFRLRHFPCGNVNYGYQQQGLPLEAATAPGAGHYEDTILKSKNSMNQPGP

STK17A (DRAK1) = STK17A (DRAK1) (Homo sapiens, UniProt Q9UEE5); conditions: read-out: % inhibition mean (Lanthascreen)
SIK3 = SIK3 (Homo sapiens, UniProt Q9Y2K2); conditions: read-out: % inhibition mean (Lanthascreen)
EPHA7 = EPHA7 (Homo sapiens, UniProt Q15375); conditions: read-out: % inhibition mean (Lanthascreen)
Sequence of EPHA7 (Q15375 whole entry): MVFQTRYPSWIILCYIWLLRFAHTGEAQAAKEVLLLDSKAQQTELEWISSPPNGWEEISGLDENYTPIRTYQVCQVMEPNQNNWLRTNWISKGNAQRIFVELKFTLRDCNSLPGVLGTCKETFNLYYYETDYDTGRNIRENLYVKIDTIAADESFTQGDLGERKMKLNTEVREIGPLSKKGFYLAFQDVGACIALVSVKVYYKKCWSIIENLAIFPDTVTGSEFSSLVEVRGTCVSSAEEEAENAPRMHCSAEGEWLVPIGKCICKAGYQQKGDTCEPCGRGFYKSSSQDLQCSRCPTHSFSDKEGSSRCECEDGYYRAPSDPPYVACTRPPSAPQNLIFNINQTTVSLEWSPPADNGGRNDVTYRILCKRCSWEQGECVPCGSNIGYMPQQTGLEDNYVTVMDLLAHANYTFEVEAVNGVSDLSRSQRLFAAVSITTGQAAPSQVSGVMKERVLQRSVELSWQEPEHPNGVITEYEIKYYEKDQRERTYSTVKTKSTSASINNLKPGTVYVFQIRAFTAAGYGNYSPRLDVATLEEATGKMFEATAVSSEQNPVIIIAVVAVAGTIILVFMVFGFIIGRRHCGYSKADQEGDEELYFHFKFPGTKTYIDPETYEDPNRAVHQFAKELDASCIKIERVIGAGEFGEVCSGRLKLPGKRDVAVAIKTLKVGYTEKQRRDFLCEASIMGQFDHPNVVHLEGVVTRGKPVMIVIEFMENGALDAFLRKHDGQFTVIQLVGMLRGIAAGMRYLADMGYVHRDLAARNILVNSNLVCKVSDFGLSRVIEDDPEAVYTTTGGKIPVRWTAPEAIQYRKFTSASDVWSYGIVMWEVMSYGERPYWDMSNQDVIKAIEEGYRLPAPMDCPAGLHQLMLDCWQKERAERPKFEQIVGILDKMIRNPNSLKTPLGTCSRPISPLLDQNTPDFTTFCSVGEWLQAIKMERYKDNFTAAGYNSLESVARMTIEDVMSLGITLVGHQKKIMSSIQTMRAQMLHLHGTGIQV

MAPK9 (JNK2) = MAPK9 (JNK2) (Homo sapiens, UniProt P45984); conditions: read-out: % inhibition mean (Lanthascreen)
EIF2AK2 (PKR) = EIF2AK2 (PKR) (Homo sapiens, UniProt P19525); conditions: read-out: % inhibition mean (Lanthascreen)
ABL1 M351T = ABL1 M351T (Homo sapiens, UniProt P00519, M351T); conditions: read-out: % inhibition mean (Lanthascreen)
WNK1 = WNK1 (Homo sapiens, UniProt Q9H4A3); conditions: read-out: % inhibition mean (Lanthascreen)
MAP3K10 (MLK2) = MAP3K10 (MLK2) (Homo sapiens, UniProt Q02779); conditions: read-out: % inhibition mean (Lanthascreen)
CDK5 (Inactive) = CDK5 (Inactive) (Homo sapiens, UniProt Q00535); conditions: read-out: % inhibition mean (Lanthascreen)
Sequence of CDK5 (Inactive) (Q00535 whole entry): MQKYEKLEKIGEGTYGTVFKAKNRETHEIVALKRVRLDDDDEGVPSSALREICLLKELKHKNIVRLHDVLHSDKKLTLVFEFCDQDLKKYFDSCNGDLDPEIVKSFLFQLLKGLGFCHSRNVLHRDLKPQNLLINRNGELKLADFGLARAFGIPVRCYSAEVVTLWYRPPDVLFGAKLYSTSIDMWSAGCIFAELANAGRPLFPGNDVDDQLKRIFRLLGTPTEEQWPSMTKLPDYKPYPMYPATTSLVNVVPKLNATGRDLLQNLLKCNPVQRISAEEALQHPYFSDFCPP

LIMK2 = LIMK2 (Homo sapiens, UniProt P53671); conditions: read-out: % inhibition mean (Lanthascreen)
MAP4K1 (HPK1) = MAP4K1 (HPK1) (Homo sapiens, UniProt Q92918); conditions: read-out: % inhibition mean (Lanthascreen)
TNIK = TNIK (Homo sapiens, UniProt Q9UKE5); conditions: read-out: % inhibition mean (Lanthascreen)
MAP3K5 (ASK1) = MAP3K5 (ASK1) (Homo sapiens, UniProt Q99683); conditions: read-out: % inhibition mean (Lanthascreen)
KIT Y823D = KIT Y823D (Homo sapiens, UniProt P10721, Y823D); conditions: read-out: % inhibition mean (Lanthascreen)
ANKK1 = ANKK1 (Homo sapiens, UniProt Q8NFD2); conditions: read-out: % inhibition mean (Lanthascreen)
ABL1 Q252H = ABL1 Q252H (Homo sapiens, UniProt P00519, Q252H); conditions: read-out: % inhibition mean (Lanthascreen)
MAPK15 (ERK7) = MAPK15 (ERK7) (Homo sapiens, UniProt Q8TD08); conditions: read-out: % inhibition mean (Lanthascreen)
Sequence of MAPK15 (ERK7) (Q8TD08 whole entry): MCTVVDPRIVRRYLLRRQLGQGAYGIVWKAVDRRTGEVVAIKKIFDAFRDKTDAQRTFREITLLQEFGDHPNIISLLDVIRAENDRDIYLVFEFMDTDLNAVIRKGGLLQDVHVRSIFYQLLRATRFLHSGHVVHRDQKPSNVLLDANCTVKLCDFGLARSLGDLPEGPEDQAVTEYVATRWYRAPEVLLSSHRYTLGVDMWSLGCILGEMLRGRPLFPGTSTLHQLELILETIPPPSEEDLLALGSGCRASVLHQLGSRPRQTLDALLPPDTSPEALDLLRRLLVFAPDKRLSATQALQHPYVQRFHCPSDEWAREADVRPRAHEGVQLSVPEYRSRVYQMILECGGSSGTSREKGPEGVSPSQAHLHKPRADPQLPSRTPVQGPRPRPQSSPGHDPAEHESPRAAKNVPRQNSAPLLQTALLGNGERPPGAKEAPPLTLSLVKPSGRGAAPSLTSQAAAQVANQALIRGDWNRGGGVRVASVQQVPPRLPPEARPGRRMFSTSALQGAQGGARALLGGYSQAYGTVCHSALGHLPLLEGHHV

DDR2 N456S = DDR2 N456S (Homo sapiens, UniProt Q16832, N456S); conditions: read-out: % inhibition mean (Lanthascreen)
Sequence of DDR2 N456S (Q16832 whole entry N456S): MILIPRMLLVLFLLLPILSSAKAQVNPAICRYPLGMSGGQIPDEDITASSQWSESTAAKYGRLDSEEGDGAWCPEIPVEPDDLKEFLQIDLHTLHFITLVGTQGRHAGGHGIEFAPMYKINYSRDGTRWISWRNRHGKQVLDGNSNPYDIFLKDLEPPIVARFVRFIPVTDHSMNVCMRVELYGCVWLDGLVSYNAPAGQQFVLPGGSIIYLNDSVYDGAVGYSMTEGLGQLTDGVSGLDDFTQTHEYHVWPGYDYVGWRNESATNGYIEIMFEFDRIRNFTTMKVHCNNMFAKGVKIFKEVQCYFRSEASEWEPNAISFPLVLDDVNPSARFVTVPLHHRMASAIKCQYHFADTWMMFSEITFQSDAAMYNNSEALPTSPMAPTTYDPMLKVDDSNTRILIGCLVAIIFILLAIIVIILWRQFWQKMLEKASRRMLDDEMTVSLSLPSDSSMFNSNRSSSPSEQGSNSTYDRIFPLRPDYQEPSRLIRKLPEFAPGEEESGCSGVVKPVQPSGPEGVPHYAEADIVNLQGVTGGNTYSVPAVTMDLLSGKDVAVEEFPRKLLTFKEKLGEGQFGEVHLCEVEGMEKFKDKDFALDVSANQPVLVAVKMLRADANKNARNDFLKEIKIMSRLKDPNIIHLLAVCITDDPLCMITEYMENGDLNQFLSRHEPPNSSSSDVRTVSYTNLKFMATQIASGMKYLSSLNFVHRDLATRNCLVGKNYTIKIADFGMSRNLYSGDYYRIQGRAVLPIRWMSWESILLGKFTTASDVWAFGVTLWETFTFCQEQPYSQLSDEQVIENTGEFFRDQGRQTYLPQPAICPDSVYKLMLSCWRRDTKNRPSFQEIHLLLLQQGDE

MAP3K11 (MLK3) = MAP3K11 (MLK3) (Homo sapiens, UniProt Q16584); conditions: read-out: % inhibition mean (Lanthascreen)
CAMK1 (CaMK1) = CAMK1 (CaMK1) (Homo sapiens, UniProt Q14012); conditions: read-out: % inhibition mean (Adapta)
PDK1 = PDK1 (Homo sapiens, UniProt O15530)
Sequence of PDK1 (O15530 whole entry): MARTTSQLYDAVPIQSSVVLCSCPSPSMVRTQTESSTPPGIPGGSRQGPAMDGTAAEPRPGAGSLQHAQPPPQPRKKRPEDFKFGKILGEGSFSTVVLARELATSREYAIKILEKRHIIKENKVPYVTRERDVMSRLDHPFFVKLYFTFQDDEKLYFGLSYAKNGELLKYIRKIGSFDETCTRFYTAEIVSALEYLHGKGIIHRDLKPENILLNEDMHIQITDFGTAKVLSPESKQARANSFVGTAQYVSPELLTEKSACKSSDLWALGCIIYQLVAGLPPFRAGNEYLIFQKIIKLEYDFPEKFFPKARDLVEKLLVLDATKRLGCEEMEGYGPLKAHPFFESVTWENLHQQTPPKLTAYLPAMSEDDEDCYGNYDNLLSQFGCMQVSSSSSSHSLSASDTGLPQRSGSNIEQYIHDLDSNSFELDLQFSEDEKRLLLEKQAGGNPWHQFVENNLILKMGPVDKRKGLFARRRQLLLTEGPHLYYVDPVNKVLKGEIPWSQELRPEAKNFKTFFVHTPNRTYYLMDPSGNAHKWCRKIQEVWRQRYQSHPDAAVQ

**Q.** Which results are given for COc1ccc2nc3cc(Cl)ccc3c(Nc3cc(CN4CCCC4)c(O)c(CN4CCCC4)c3)c2n1 [Pyronaridine, 4-[(7-Chloro-2-methoxybenzo[b][1,5]naphthyridin-10-yl)amino]-2,6-bis(1-pyrrolidinylmethyl)phenol phosphate (1:4)]?
**A.** inhibition at 1 µM (TEK (TIE2) Y1108F): -2%; inhibition at 1 µM (KIT V654A): 10%; inhibition at 1 µM (TESK2): -3%; inhibition at 1 µM (VRK2): -4%; inhibition at 1 µM (EPHA6): -3%; inhibition at 1 µM (TTK): 4%; inhibition at 1 µM (ALK C1156Y): -2%; inhibition at 1 µM (STK17A (DRAK1)): 1%; inhibition at 1 µM (SIK3): -2%; inhibition at 1 µM (EPHA7): -3%; inhibition at 1 µM (MAPK9 (JNK2)): 6%; inhibition at 1 µM (EIF2AK2 (PKR)): 4%; inhibition at 1 µM (ABL1 M351T): 8%; inhibition at 1 µM (WNK1): 4%; inhibition at 1 µM (MAP3K10 (MLK2)): 0%; inhibition at 1 µM (CDK5 (Inactive)): -1%; inhibition at 1 µM (LIMK2): -1%; inhibition at 1 µM (MAP4K1 (HPK1)): 1%; inhibition at 1 µM (TNIK): -1%; inhibition at 1 µM (MAP3K5 (ASK1)): -11%; inhibition at 1 µM (KIT Y823D): -4%; inhibition at 1 µM (ANKK1): -2%; inhibition at 1 µM (ABL1 Q252H): -10%; inhibition at 1 µM (MAPK15 (ERK7)): -11%; inhibition at 1 µM (DDR2 N456S): 17%; inhibition at 1 µM (MAP3K11 (MLK3)): 2%; inhibition at 1 µM (CAMK1 (CaMK1)): 35%; inhibition at 1 µM (PDK1; read-out: % inhibition mean (Z'Lyte)): 0%; inhibition at 1 µM (PDK1; read-out: % inhibition mean (Z'Lyte), direct format): 7%
